Measured values reported in BindingDB's records for doi:10.1021/jm00021a021 (Tsukuba Research Institute, 1995).

Target: T1, Endothelin-1 receptor (Sus scrofa, UniProt Q29010)
T1 sequence (Q29010 whole entry): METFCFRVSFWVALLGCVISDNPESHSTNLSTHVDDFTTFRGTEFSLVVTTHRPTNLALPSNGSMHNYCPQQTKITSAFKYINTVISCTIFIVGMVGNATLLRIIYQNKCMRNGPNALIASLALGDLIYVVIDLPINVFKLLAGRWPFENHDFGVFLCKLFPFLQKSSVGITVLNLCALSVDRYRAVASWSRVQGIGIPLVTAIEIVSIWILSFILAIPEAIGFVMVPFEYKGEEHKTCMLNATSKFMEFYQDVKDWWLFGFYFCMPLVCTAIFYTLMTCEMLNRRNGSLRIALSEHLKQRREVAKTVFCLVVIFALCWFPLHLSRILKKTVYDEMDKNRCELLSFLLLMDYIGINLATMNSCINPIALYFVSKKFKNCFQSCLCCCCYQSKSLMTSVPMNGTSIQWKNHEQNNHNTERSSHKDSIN
Experiment: The compound was tested for binding inhibitory activity against Endothelin A receptor from porcine aortic smooth muscle membranes.

IC50: 440 nM
Structure (SMILES): CC(C)C[C@@H]1NC(=O)[C@@H](CC(C)C)NC(=O)[C@H](C)NC(=O)[C@@H](CC(=O)O)NC(=O)[C@@H](Cc2c[nH]c3ccccc23)NC1=O
